This passage reports IC50 results from patent US20170291905A1, “ARGININE […] INHIBITORS AND USES THEREOF” (Epizyme, Inc., priority 2014, published 2017).

Where a name gives a salt, the structure may show the parent alone.

In general, IC50 refers to the midpoint of a concentration-inhibition curve. A high value points to lower potency.

Chain of full-length human PRMT8 isoform 1 (Q9NR22 whole entry, canonical isoform): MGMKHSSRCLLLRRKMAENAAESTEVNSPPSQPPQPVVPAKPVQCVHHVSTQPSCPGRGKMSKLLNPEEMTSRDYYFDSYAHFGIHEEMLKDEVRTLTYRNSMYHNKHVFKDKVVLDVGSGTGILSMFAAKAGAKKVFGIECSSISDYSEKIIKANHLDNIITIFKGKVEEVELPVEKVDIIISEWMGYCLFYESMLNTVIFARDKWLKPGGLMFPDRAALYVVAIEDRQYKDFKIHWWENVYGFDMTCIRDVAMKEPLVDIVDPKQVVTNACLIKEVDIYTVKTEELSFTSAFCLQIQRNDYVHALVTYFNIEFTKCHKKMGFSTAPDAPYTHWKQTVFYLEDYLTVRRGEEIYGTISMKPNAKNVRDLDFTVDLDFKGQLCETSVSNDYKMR

This assay addresses full-length human PRMT8 isoform 1 (Homo sapiens, UniProt Q9NR22). Briefly: PRMT8 biochemical assay (3H-SAM Flashplate, histone H4 31-45 peptide). To be noted: 1.5 nM PRMT8, 30 min preincubation, 150 nM peptide. From the text:
S-adenosylmethionine (SAM), S-adenosylhomocysteine (SAH), bicine, Tween20, dimethylsulfoxide (DMSO), bovine skin gelatin (BSG), isopropyl-β-D-thiogalactopyranoside (IPTG), and Tris(2-carboxyethyl)phosphine hydrochloride solution (TCEP) were purchased from Sigma-Aldrich at the highest level of purity possible. ^3H-SAM was purchase from American Radiolabeled Chemicals with a specific activity of 80 Ci/mmol. 384-well streptavidin Flashplates were purchased from PerkinElmer.
Peptide representative of human histone H4 residues 31-45 was synthesized with an N-terminal linker-affinity tag motif and a C-terminal amide cap by 21st Century Biochemicals. The peptide was purified by high-performance liquid chromatography (HPLC) to greater than 95% purity and confirmed by liquid chromatography mass spectrometry (LC-MS). The sequence was Biot-Ahx-[…]-amide (SEQ ID NO.:8).
The resulting construct encodes an N-terminal GST tag and a thrombin cleavage sequence
E. coli (BL21(DE3) Gold, Stratagene) made competent by the CaCl2 method were transformed with the PRMT8 construct and ampicillin selection. Protein over-expression was accomplished by growing the PRMT8 expressing E. coli clone and inducing expression with 0.3 mM IPTG at 16° C. The culture was grown for 12 hours, harvested by centrifugation, and stored at −80° C. for purification.
GST-tagged PRMT8 was eluted with 50 mM Tris, 2 mM glutathione, pH 7.8. Pooled fractions were cleaved by thrombin (10U) and dialysed in buffer A. GST was removed by reloading the cleaved protein sample onto glutathione sepharose column and PRMT8 was collected in the flow-through fractions. PRMT8 was purified further by ceramic hydroxyapatite chromatography. The column was washed with 50 mM phosphate buffer, 100 mM NaCl, 5% glycerol, 5 mM […], pH 7.8 and PRMT8 was eluted by 100 mM phosphate in the same buffer. Protein was concentrated and buffer was exchanged to 50 mM Tris, 300 mM NaCl, 10% glycerol, 5 mM β-mercaptoethanol, pH 7.8 by ultrafiltration. The purity of recovered protein was 89%.
General Procedure for PRMT8 Enzyme Assays on Peptide Substrates.
The assays were all performed in a buffer consisting of 20 mM Bicine (pH=7.6), 1 mM TCEP, 0.005% BSG, and 0.002% Tween 20, prepared on the day of use. Compounds in 100% DMSO (1 ul) were spotted into a polypropylene 384-well V-bottom plates (Greiner) using a Platemate Plus outfitted with a 384-channel head (Thermo Scientific). DMSO (1 ul) was added to Columns 11, 12, 23, 24, rows A-H for the maximum signal control and 1 ul of SAH, a known product and inhibitor of PRMT8, was added to columns 11, 12, 23, 24, rows I-P for the minimum signal control. A cocktail (40 ul) containing the PRMT8 enzyme was added by Multidrop Combi (Thermo-Fisher). The compounds were allowed to incubate with PRMT8 for 30 min at room temperature, then a cocktail (10 ul) containing ^3H-SAM and peptide was added to initiate the reaction (final volume=51 ul). The final concentrations of the components were as follows: PRMT8 was 1.5 nM, ^3H-SAM was 50 nM, non-radiolabeled SAM was 550 nM, peptide was 150 nM, SAH in the minimum signal control wells was 1 mM, and the DMSO concentration was 2%. The assays were stopped by the addition of non-radiolabeled SAM (10 ul) to a final concentration of 400 uM, which dilutes the ^3H-SAM to a level where its incorporation into the peptide substrate is no longer detectable. 50 ul of the reaction in the 384-well polypropylene plate was then transferred to a 384-well Flashplate and the biotinylated peptides were allowed to bind to the streptavidin surface for at least 1 hour before being washed once with 0.1% Tween20 in a Biotek ELx405 plate washer. The plates were then read in a PerkinElmer TopCount plate reader to measure the quantity of ^3H-labeled peptide bound to the Flashplate surface, measured as disintegrations per minute (dpm) or alternatively, referred to as counts per minute (cpm). […]
For the compound `CNCCN(C)Cc1scnc1[C@H]1CC[C@@]2(CC1)CC(C)(C)CO2` [compound 62], the IC50 is 9.08 nM. The same measure for `CCC1(CC)CC2(CCC(c3n[nH]cc3CN(C)CCNC)CC2)N(C)C1=O` (stereo not drawn) [compound 22, 3,3-diethyl-1-methyl-8-(4-((methyl(2-(methylamino)ethyl)amino)methyl)-1H-pyrazol-3-yl)-1-azaspiro[4.5]decan-2-one]: 20.3 nM; for `CNCCN(C)Cc1nn(C)cc1[C@H]1CC[C@@]2(CC1)CC(C)(C)CO2` [compound 81]: 30.9 nM. With `CNCCN(C)Cc1c[nH]nc1C1C[C@H](C(=O)NCCOC)C(C)(C)[C@H](C(=O)NCCOC)C1` (stereo partly drawn) [compound 13] the figure was more than 10000 nM; with `CNCCN(C)Cc1c(C)noc1[C@H]1CC[C@@]2(CC1)CC(C)(C)CO2` [compound 113], 51.5 nM. In the case of `CNCCN(C)Cc1nocc1[C@H]1CC[C@@]2(CC1)CC(C)(C)CO2` [compound 117], the IC50 amounted to 40.8 nM. For the compound `CNCCN(C)Cc1c[nH]nc1[C@@H]1CC[C@@H](OCCCOC)C2(CCCC2)C1` (racemic) [compound 26, N1-((3-((7R,10R)-10-(3-methoxypropoxy)spiro[4.5]decan-7-yl)-1H-pyrazol-4-yl)methyl)-N1,N2-dimethylethane-1,2-diamine], the IC50 was found to be 67.6 nM. Compound `CCOCC1(COCC)CCC(c2nn(C)cc2CN(C)CCN)CC1` [compound 124] yielded an IC50 of 25.4 nM. In turn, `CNCCN(C)Cc1nncn1[C@H]1CC[C@@]2(CC1)CC(C)(C)CO2` [compound 68] showed an IC50 of 3480 nM.

As for `CC[C@]12CC[C@](CC)(C[C@@H](c3n[nH]cc3CN(C)CCNC)C1)O2` [compound 38, N1-((3-((1R,3s,5S)-1,5-diethyl-8-oxabicyclo[3.2.1]octan-3-yl)-1H-pyrazol-4-yl)methyl)-N1,N2-dimethylethane-1,2-diamine], the IC50 is 177 nM. Compared with the last compound, the IC50 is about 20-fold lower. `CCOCC1(COCC)CCC(c2n[nH]cc2CN(C)CCN)CC1` [compound 123] displayed an IC50 of 9.49 nM. The same measure for `CNCCN(C)Cc1nn[nH]c1[C@H]1CC[C@]2(CC1)CC(C)(C)CO2` [compound 89]: 137 nM.

In the case of `CNCCN(C)Cc1nn(C)nc1[C@H]1CC[C@@]2(CC1)CC(C)(C)CO2` [compound 64], the IC50 came out at 25.3 nM. `CNCCN(C)Cc1c[nH]nc1C1=CCC(CF)(CF)CC1` [compound 15, N-((3-(4,4-bis(fluoromethyl)cyclohex-1-en-1-yl)-1H-pyrazol-4-yl)methyl)-N1,N2-dimethylethane-1,2-diamine] yielded a half-maximal inhibitory concentration (IC50) of 15.3 nM. The same measure for `CN(CCN)Cc1c[nH]nc1[C@H]1CC[C@@]2(CC1)CC(C)(C)CO2` [compound 105]: 9.13 nM; for `CNCCN(C)Cc1c[nH]nc1[C@@H]1CC[C@H](OCCCOC)C2(CCCC2)C1` (racemic) [compound 27, N1-((3-((7R,10S)-10-(3-methoxypropoxy)spiro[4.5]decan-7-yl)-1H-pyrazol-4-yl)methyl)-N1,N2-dimethylethane-1,2-diamine]: 31.2 nM. With `CN(CCN)Cc1nn(C)cc1[C@H]1CC[C@]2(CC1)CC(C)(C)CO2` [compound 102] the figure was 38.9 nM. The same measure for `CNCCNCc1c[nH]nc1[C@H]1CC[C@@]2(CC1)CC(C)(C)CO2` [compound 28, N1-((3-((5s,8s)-3,3-dimethyl-1-oxaspiro[4.5]decan-8-yl)-1H-pyrazol-4-yl)methyl)-N2-methylethane-1,2-diamine]: 20.7 nM; for `Cc1[nH]nc([C@H]2CC[C@@]3(CC2)CC(C)(C)CO3)c1CN(C)CCN` [compound 51, N1-((3-((5s,8s)-3,3-dimethyl-1-oxaspiro[4.5]decan-8-yl)-5-methyl-1H-pyrazol-4-yl)methyl)-N1-methylethane-1,2-diamine]: 14.2 nM; for `CNCCN(C)Cc1c[nH]nc1C1=CCC(COCC(F)(F)F)CC1` (stereo not drawn) [compound 16, N1,N2-dimethyl-N1-((3-(4-((2,2,2-trifluoroethoxy)methyl)cyclohex-1-en-1-yl)-1H-pyrazol-4-yl)methyl)ethane-1,2-diamine]: 26.4 nM. Compound `CNCCN(C)Cc1nc(C)sc1[C@H]1CC[C@]2(CC1)CC(C)(C)CO2` [compound 99] registered an IC50 of 49 nM. On to `CCC1CC(c2n[nH]cc2CN(C)CCNC)CC(C(=O)NCCOC)C1(C)C` (stereo not drawn) [compound 21, 3-ethyl-N-(2-methoxyethyl)-2,2-dimethyl-5-[4-([methyl[2-(methylamino)ethyl]amino]methyl)-1H-pyrazol-3-yl]cyclohexane-1-carboxamide dihydrochloride], for which it took 614 nM to reach half-maximal inhibition (IC50). This IC50 lies about 13-fold higher than the previous one. `CNCCN(C)Cc1nc(C)sc1[C@H]1CC[C@@]2(CC1)CC(C)(C)CO2` [compound 77] had an IC50 of 27.7 nM.

With `CCC1(CC)C[C@]2(CC[C@H](c3n[nH]cc3CN(C)CCNC)CC2)OC1=O` [compound 33, (5s,8s)-3,3-diethyl-8-(4-((methyl(2-(methylamino)ethyl)amino)methyl)-1H-pyrazol-3-yl)-1-oxaspiro[4.5]decan-2-one], the IC50 was determined as 95.8 nM. With `CNCCN(C)Cc1nccn1[C@H]1CC[C@]2(CC1)CC(C)(C)CO2` [compound 91] the figure was 1180 nM; with `CCN(C)C(=O)C1CC(c2n[nH]cc2CN(C)CCNC)CC(C(=O)NCCC(C)C)C1(C)C` (stereo not drawn) [compound 14, N1-ethyl-N3-isopentyl-N1,2,2-trimethyl-5-(4-((methyl(2-(methylamino)ethyl)amino)methyl)-1H-pyrazol-3-yl)cyclohexane-1,3-dicarboxamide], more than 10000 nM; with `CNCCN(C)Cc1scnc1[C@H]1CC[C@]2(CC1)CC(C)(C)CO2` [compound 84], 24.2 nM. Compound `CNCCNCc1c[nH]nc1[C@H]1CC[C@]2(CC1)CC(C)(C)CO2` [compound 29, N1-((3-((5r,8r)-3,3-dimethyl-1-oxaspiro[4.5]decan-8-yl)-1H-pyrazol-4-yl)methyl)-N2-methylethane-1,2-diamine] yielded an IC50 of 258 nM. This IC50 is about 11-fold higher than that of the compound before. The same measure for `CNCCN(C)Cc1c[nH]nc1C1CCC(C)(C)[C@H](CO)C1` (stereo partly drawn) [compound 32, [(1R)-2,2-dimethyl-5-[4-({methyl[2-(methylamino)ethyl]amino}methyl)-1H-pyrazol-3-yl]cyclohexyl]methanol]: 291 nM. On to `CCOCC1(COCC)CC=C(c2n[nH]cc2CN(C)CCNC)CC1` [compound 60], for which half-maximal inhibition (IC50) required 22.5 nM.

Compound `CCCOCC1(COCCC)CCC(c2n[nH]cc2CN(C)CCNC)CC1` [compound 36, N^1-((3-(4,4-bis(propoxymethyl)cyclohexyl)-1H-pyrazol-4-yl)methyl)-N^1,N^2-dimethylethane-1,2-diamine] returned an IC50 of 12.4 nM. The same measure for `CCOCC1(COCC)CCC(c2nn(C)cc2CN(C)CCNC)CC1` [compound 122]: 28.3 nM; for `CNCCN(C)Cc1c[nH]nc1[C@H]1CC[C@]2(CCCCO2)CC1` [compound 127, methyl([2-[methyl([3-[(6s,9r)-1-oxaspiro[5.5]undecan-9-yl]-1H-pyrazol-4-yl]methyl)amino]ethyl])amine bistrifluoroacetic acid salt]: 16.2 nM; for `CNCCN(C)Cc1nncn1[C@H]1CC[C@]2(CC1)CC(C)(C)CO2` [compound 90]: more than 10000 nM.

As for `CNCCN(C)Cc1c[nH]nc1C1CCC(OCCCOC)C2(CCCC2)C1` (mixture of isomers) [compound 19, N1-((3-(10-(3-methoxypropoxy)spiro[4.5]decan-7-yl)-1H-pyrazol-4-yl)methyl)-N1,N2-dimethylethane-1,2-diamine dihydrochloride], half-maximal inhibition (IC50) required 30.1 nM. For the compound `CN(CCN)Cc1nn(C)cc1[C@H]1CC[C@@]2(CC1)CC(C)(C)CO2` [compound 80], the IC50 stood at 12.1 nM.
